From patent US7622269B2, “Methods of screening tyramine- and octopamine-expressing cells for compounds and compositions having potential insect control activity” (Tyratech, Inc., priority 2004, dated 2009)
“And” between values parts separate entries of the source, which are not always exact repeats. Identical values can stand only once.

Tests used:
[1] = system: Drosophila melanogaster wild type strain; test: Topical toxicity bioassay, wild type fruit fly; type: in vivo; conditions: for Wild/type LD50 values / LD50, D. melanogaster: topical application; for Wild/type LD50 values: mortality 24 hours after treatment; for % Mortality at LD50 of wild/type Drosophila melanogaster strain, Wild/type: topical, 24 hour; for LD50, D. melanogaster: 24 hours
[2] = molecular target: T1, Pa oa1 (Periplaneta americana, UniProt Q7YWB7); test: Saturation binding of 3H-yohimbine to membranes of COS-7 cells expressing Pa oa1
T1 sequence (Q7YWB7 entry or part of it): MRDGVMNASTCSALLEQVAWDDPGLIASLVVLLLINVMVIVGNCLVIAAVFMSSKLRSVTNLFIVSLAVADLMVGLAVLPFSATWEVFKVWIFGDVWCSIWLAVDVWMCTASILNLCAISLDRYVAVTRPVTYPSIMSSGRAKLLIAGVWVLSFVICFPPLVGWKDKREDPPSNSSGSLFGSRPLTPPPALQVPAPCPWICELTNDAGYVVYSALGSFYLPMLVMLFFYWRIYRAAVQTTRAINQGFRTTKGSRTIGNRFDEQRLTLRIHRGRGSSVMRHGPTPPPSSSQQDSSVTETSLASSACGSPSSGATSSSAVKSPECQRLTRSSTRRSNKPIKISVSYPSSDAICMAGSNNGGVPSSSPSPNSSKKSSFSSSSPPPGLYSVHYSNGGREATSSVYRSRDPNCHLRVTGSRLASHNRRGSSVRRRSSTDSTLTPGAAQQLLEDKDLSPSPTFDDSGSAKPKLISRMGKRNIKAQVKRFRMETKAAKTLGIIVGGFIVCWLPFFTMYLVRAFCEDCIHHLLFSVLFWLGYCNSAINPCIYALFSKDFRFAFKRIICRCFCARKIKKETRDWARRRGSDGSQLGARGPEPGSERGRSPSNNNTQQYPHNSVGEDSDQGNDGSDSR

[3] = molecular target: T2, OAMB (Drosophila melanogaster, UniProt Q7JQF1, L268I/L487I/L521I/T180I); test: Saturation binding of 3H-yohimbine to membranes of COS-7 cells expressing OAMB; parameters: Oligonucleotides designed to amplify the open reading frame of Drosophila melanogaster OAMB; expressed in transfected cells
T2 sequence (Q7JQF1 other isoform, or with tags, fused parts or gaps T180I/L268I/L487I/L524I): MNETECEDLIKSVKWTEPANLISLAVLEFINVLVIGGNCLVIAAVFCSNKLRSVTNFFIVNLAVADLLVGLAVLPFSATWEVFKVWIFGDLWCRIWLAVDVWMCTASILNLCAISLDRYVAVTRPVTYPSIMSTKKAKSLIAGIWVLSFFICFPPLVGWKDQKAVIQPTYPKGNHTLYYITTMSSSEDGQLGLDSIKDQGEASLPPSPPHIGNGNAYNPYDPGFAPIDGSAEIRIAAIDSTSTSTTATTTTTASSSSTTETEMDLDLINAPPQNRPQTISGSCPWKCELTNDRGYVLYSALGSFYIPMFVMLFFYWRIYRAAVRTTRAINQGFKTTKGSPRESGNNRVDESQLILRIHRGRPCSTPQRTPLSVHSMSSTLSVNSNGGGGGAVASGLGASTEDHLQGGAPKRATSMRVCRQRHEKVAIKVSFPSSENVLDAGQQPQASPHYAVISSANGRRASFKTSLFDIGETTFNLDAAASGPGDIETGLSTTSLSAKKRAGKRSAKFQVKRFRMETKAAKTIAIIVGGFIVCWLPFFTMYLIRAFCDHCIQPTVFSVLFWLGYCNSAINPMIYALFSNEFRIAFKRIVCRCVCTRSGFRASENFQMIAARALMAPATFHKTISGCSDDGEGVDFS

[4] = molecular target: T1, Pa oa1; test: cAMP levels in HEK-293 cells expressing Pa oa1; type: cell-based
Experimental: (§1) Twenty-four hours before cell treatment, about 300,000 HEK-293 cells are plated in about 1 ml media with about 0.8 mg G418/ml into multi-well dishes (e.g., 12-well, 4.5 cm^2). For cell treatment, the media is aspirated and about 1 ml PBS with about 300 μM IBMX and the test reagent is added. […] Cells are incubated with about 70% ethanol for about 1 h at about −20° C. The cellular debris is centrifuged and then the supernatant is removed and lyophilized to dryness. The amount of cAMP in the extract is determined by using a cAMP binding protein from the ^3H-cAMP Biotrak assay system (Amersham Biosciences) as per the manufacturer's instructions. To test the effects of calcium chelation on cAMP levels, the cells are incubated with about […] BAPTA/AM (Calbiochem Biochemicals, La Jolla, Calif.) for about 10 min before the addition of the test reagents.
(§2) To determine cAMP levels in cells, about 24-hours before cell treatment, 300,000 HEK-293 cells are plated in 1 mL media with 0.8 mg G418/mL into multi-dishes (4.5 cm2). For cell treatment, the media is aspirated and 1 mL PBS with 300 μM IBMX and the test reagent is added. Cells are incubated at 37° C. for 20 min, and the PBS is then aspirated. Cells are incubated with 70% ethanol for 1 hour at −20° C. The cellular debris is centrifuged and then the supernatant is removed and lyophilized to dryness. The amount of cAMP in the extract is determined by using a cAMP binding protein from the ^3H-cAMP Biotrak assay system (Amersham Biosciences, Piscataway, N.J.) as per the manufacturer's instructions.

[5] = molecular target: T1, Pa oa1; test: Intracellular calcium (Fura-2) in HEK-293 cells expressing Pa oa1; type: cell-based
[6] = molecular target: T1, Pa oa1; test: Competitive binding against 3H-yohimbine, Pa oa1 membranes; conditions: Ki, about 2 nM 3H-yohimbine
[7] = system: control HEK-293 cells; test: Intracellular calcium in control HEK-293 cells transfected with empty pCDNA3; type: cell-based, human; conditions: about 10 μM
[8] = molecular target: T2, OAMB; test: biochemical; type: binding; parameters: Oligonucleotides designed to amplify the open reading frame of Drosophila melanogaster OAMB; expressed in transfected cells
[9] = system: control HEK-293 cells; test: cAMP levels in control HEK-293 cells transfected with pCDNA3 without insert; type: cell-based, human; conditions: up to about 100 μM
Experimental: as §1
To determine which second messenger signaling pathways octopamine could affect through the Pa oa1 receptor, HEK-293 cells are stably transfected with pCDNA3-Pa oa1 or pCDNA3 without an insert as a control.

[10] = molecular target: T2, OAMB; test: Intracellular calcium (Fura-2) in HEK-293 cells expressing OAMB; conditions: 25 μM
Experimental: Cells are collected by scraping and are suspended at about 750,000 cells/ml in HBSS with about 5 μM Fura-2 AM (Sigma-Aldrich).

[11] = molecular target: T2, OAMB; test: cAMP levels in HEK-293 cells expressing OAMB; type: cell-based; parameters: Oligonucleotides designed to amplify the open reading frame of Drosophila melanogaster OAMB; expressed in transfected cells; conditions: 50 μM, 300 μM IBMX
Experimental: as §2

[12] = system: American cockroach; test: Topical toxicity bioassay, American cockroach; type: in vivo, Periplaneta americana; conditions: for LD50, P. Americana: topical application, 24 hours
Experimental: Acetonic solutions of plant essential oils are prepared and different concentrations of each, that give from 10%-100% mortality, are applied by topical application. Controls are treated with the same volume (0.5 μl/insect) of acetone. Replicates, with 5 insects per replicate, are used for each concentration. The mortality is calculated 24 hours after treatment. Data are subjected to probit analysis to determine LD50 value for each compound.

[13] = molecular target: T1, Pa oa1; test: Specific binding of 3H-yohimbine to Pa oa1 membranes in presence of plant essential oil; conditions: for relative potency as inhibitor of 3H-yohimbine binding, Pa oa1 vs OAMB: 50 μM; for effect on specific binding of 3H-yohimbine: 50 μM test chemical, 4 nM 3H-yohimbine
Experimental: (§3) The binding activity of ^3H-yohimbine to membranes expressing Pa oa1 or OAMB is performed in the presence and absence of three structurally related plant essential oil monoterpenoids, which are selected based on their insecticidal activity, the absence or presence and location of the hydroxyl group and a spacing group within the molecule. Membrane protein (10 μg) expressing Pa oa1 is incubated with 4 nM ^3H-yohimbine in the presence and absence of 50 μM of the test chemical. The specific activity is calculated as the difference between counts in the presence and absence of test chemical. Specific binding is calculated by determining nonspecific binding with 50 μM tested plant essential oils and subtracting nonspecific binding from total binding.

[14] = molecular target: T2, OAMB; test: Specific binding of 3H-yohimbine to OAMB membranes in presence of plant essential oil; parameters: Oligonucleotides designed to amplify the open reading frame of Drosophila melanogaster OAMB; expressed in transfected cells; conditions: 50 μM test chemical, 4 nM 3H-yohimbine
Experimental: as §3

[15] = 3H-yohimbine 0.5 to 50 nM, 50 μM phentolamine for nonspecific binding

For `CCC(=O)OCCc1ccccc1` [2-phenylethyl propionate], the “Wild/type LD50 values” [1] was 14.50 μg/fly and the “% Mortality at LD50 of wild/type Drosophila melanogaster strain, Wild/type” value (from here on “% Mortality at LD50 … Wild/type”) [1] was 53.3%.
With `COC(=O)[C@@H]1[C@H]2C[C@H]3c4[nH]c5ccccc5c4CCN3C[C@@H]2CC[C@@H]1O` [3H-yohimbine] the Kd [2, 15] was ~0.0284 µM and 0.0284 µM, the “Bmax for specific binding” value ([2]; COS-7 membranes) was “about 11.8 pmol/mg protein” and the “affinity of Pa oa1 to the radioligand higher than OAMB” value ([2]; Pa oa1 vs OAMB) was “about 1.5 fold”. The Bmax ([2]; Table B) was 11.80 pmole receptor/mg protein, the Kd [3, 15] was ~0.043 µM and 0.043 µM and the Bmax ([3]; COS-7 membranes) was “about 8.04 pmol/mg”. For the same compound, the Bmax ([3]; Table B) was 8.04 pmole receptor/mg protein.
In the case of `CC(=O)OCOC(=O)CN(CC(=O)OCOC(C)=O)c1ccccc1OCCOc1ccccc1N(CC(=O)OCOC(C)=O)CC(=O)OCOC(C)=O` [BAPTA/AM], the “cAMP levels in absence vs presence of BAPTA/AM” value ([4]; about 20 μM BAPTA/AM, basal, about 100 nM or about 1 μM octopamine) is reported as “not found to be statistically different” and the “effect on increase in free intracellular calcium by about 1 μM octopamine” value ([5]; about 20 μM BAPTA/AM) is reported as “inhibit the increase in free intracellular calcium”.
With `CN(C)CCCN1c2ccccc2Sc2ccc(Cl)cc21` [Chlorpromazine] the Ki [6] was 0.012 ± 0.003 µM.
`NCCc1ccc(O)c(O)c1` [Dopamine] showed a Ki [6] of 56.6 ± 8 µM.
In the case of `CCN(CC)CCNC(=O)c1cc(Cl)c(N)cc1OC` [Metoclopramine], the Ki [6] is reported as 4.76 ± 1.32 µM.
`Cc1ccc(N(CC2=NCCN2)c2cccc(O)c2)cc1` [Phentolamine] gave a Ki [6] of 0.023 ± 0.009 µM.
Work on `NCCc1c[nH]c2ccc(O)cc12` [Serotonin] yielded a Ki [6] of 77.4 ± 11.6 µM.
In the case of `NCCc1ccc(O)cc1` [Tyramine, tyramine], the “effect on intracellular calcium levels” value [7] is reported as “Neither about 10 μM octopamine nor about 10 μM tyramine modulates intracellular calcium levels”, the Ki [8] is reported as about 33.8 µM and the EC50 ([4]; 300 μM IBMX, read-out: EC50 for increase in cAMP) is reported as about 97.7 µM. For the same compound, the fold induction at 100 µM ([4]; HEK293, 20 min, about 100 μM amine, read-out: increase in cAMP) was about 215, the cAMP concentration ([4]; about 10 nM amine, basal about 0.48 pmol cAMP) was “about 0.50 pmol cAMP” and the cAMP ([4]; about 1 μM amine) was “about 1.2 pmol”. For the same compound, the Ki [6] was ~31 µM and 31 µM, the “effect on cAMP levels” value [9] was “neither DL-octopamine nor tyramine at concentrations up to about 100 μM has significant effects on cAMP levels” and the “concentration that increases intracellular calcium” value [5] was at least 1 µM. For the same compound, the “effect on intracellular calcium” value ([5]; about 100 nM) was “does not modulate intracellular calcium levels” and the “increase in tyramine concentration compared to about 10 nM octopamine required for similar response” value ([5]; calcium and cAMP assays) was “about 100 fold”.
For `OCC=Cc1ccccc1` [cinnamic alcohol, 3-phenyl-2-propen-1-ol], the “changes in [Ca2+]i level” value [10] was “increase [Ca^2+]i through Pa oa1 and OAMB”, the “rank of potency based on increased [Ca2+]i level” value [10] was “the most potent agent tested in this example” and the “speed of increase in [Ca2+]i” value [10] was “slower than the other two chemicals”. The “effect on basal cAMP level” value [11] was “slight increase in cAMP level”, the “LD50, P. Americana” value [12] was 98 μg/insect and the “effect on basal cAMP level” value ([4]; 50 μM, 300 μM IBMX) was “slight increase in cAMP level”. The “relative potency as inhibitor of 3H-yohimbine binding, Pa oa1 vs OAMB” value [13] was “more potent against OAMB than Pa oa1”, the “effect on specific binding of 3H-yohimbine” value (from here on “effect on specific binding”) [13] was “decrease the binding of ^3H-yohimbine” and the “LD50, D. melanogaster” value [1] was 1.65 μg/insect. The “Wild/type LD50 values” [1] was 1.65 μg/fly, the “% Mortality at LD50 … Wild/type” value [1] was 30.0% and the “effect on specific binding” value [14] was “decrease the binding of ^3H-yohimbine”. The “changes in [Ca2+]i level” value ([5]; 25 μM) was “increase [Ca^2+]i through Pa oa1 and OAMB”.
`C=CCc1ccc(O)c(OC)c1` [eugenol, 2-methoxy-4-(2-propenyl)phenol] was tested, and the “changes in [Ca2+]i level” value [10] was “increase [Ca^2+]i through Pa oa1 and OAMB”, the “effect on basal cAMP level” value [11] was “slightly decreased cAMP level” and the “more toxic against American cockroach than cinnamic alcohol” value ([12]; in vivo) was “about 2 fold”. The “more toxic against American cockroach than trans-anethole” value ([12]; in vivo) was “about 27 fold”, the “LD50, P. Americana” value [12] was 47 μg/insect and the inhibition at 50 µM ([4]; HEK293, 20 min, 50 μM, 300 μM IBMX, basal cAMP, read-out: decrease in cAMP level) was 24%. The “relative potency as inhibitor of 3H-yohimbine binding, Pa oa1 vs OAMB” value [13] was “more potent inhibitors against Pa oa1 than OAMB”, the “effect on specific binding” value [13] was “decrease the binding of ^3H-yohimbine” and the “more toxic against wild type flies than trans-anethole” value ([1]; in vivo) was 3 fold. The “LD50, D. melanogaster” value [1] was 1.90 μg/insect, the “Wild/type LD50 values” [1] was 1.90 μg/fly and the “% Mortality at LD50 … Wild/type” value [1] was 53.3%. The “effect on specific binding” value [14] was “decrease the binding of ^3H-yohimbine”, the “changes in [Ca2+]i level” value ([5]; 25 μM) was “increase [Ca^2+]i through Pa oa1 and OAMB” and the “rank of potency based on increased [Ca2+]i level” value ([5]; 25 μM) was “the most potent agent tested in this example”.
For `CC(C)=CCCC(C)=CCO` [geraniol, 3,7-dimethyl-2,6-octadien-1-ol], the “Wild/type LD50 values” [1] was 10.50 μg/fly and the “% Mortality at LD50 … Wild/type” value [1] was 60.0%.
With `COC(=O)c1ccccc1O` [methyl salicylate, 2-hydroxybenzoic acid methyl ester] the “Wild/type LD50 values” [1] was 7.50 μg/fly and the “% Mortality at LD50 … Wild/type” value [1] was 40.0%.
With `Cc1ccc(C(C)C)cc1` [p-cymene, methyl(1-methylethyl)benzene] the “Wild/type LD50 values” [1] was 25.00 μg/fly and the “% Mortality at LD50 … Wild/type” value [1] was 40.0%.
In the case of `CC=Cc1ccc(OC)cc1` [trans-anethole, 1-methoxy-4-(1-propenyl)benzene], the “changes in [Ca2+]i level” value [10] is reported as “increases”, the “increase in cAMP level” value ([11]; basal cAMP) is reported as 22% and the “effect on specific binding” value [13] is reported as “decreases the ^3H-yohimbine binding activity to only Pa oa1”. For the same compound, the “effect on specific binding” value [14] was “does not have a significant effect on binding to OAMB” and the “speed of increase in [Ca2+]i” value ([5]; 25 μM) was “slower than eugenol and cinnamic alcohol”.
